Assay results taken from US10757937B2, “Sulfonamides that activate ABA receptors” (The Regents of the University of California, priority 2014, dated 2020).
Where two headings read alike, the source gives them in different places.

How the values were obtained:
Test in all cases: receptor-mediated PP2C (HAB1) inhibition in vitro assay
Type in all cases: biochemical
[1] = target: T1, PYL10 (Arabidopsis thaliana, UniProt Q8H1R0); conditions: for remaining activity at 50 µM: 50 uM of the test compound
T1 construct: 6X-His; made in house; host or cells: E. coli BL21[DE3]pLysS
T1 sequence (Q8H1R0 1-183): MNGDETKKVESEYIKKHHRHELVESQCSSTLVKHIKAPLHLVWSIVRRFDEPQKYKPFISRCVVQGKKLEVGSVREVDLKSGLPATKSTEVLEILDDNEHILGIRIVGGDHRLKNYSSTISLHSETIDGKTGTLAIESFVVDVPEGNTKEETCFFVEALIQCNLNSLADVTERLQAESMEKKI
T1 sequence (Q9CAJ0 23-511 partner): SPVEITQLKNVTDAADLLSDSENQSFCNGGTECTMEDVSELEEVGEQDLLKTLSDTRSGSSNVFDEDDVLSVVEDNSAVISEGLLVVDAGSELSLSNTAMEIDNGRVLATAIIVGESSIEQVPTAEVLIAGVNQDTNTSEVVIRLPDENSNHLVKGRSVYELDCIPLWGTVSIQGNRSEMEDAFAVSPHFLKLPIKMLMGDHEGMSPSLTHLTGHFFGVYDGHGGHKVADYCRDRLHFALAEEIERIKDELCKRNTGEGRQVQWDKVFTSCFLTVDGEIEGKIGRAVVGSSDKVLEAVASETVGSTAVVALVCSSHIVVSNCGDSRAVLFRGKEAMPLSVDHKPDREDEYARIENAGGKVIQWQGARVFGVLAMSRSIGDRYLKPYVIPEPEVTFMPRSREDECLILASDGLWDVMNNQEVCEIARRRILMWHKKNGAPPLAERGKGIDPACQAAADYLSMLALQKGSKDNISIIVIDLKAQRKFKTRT
Procedure, shortened: (§1)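 Compounds, tested at 25 μM or 50 uM with ABA at 10 uM, were incubated with recombinant receptor and 50 nM GST-HAB1 (2:1 ratio) in MnCl2-containing Tris-OAc buffer, pH 7.9. Phosphatase activity was followed by 4-methylumbelliferyl-phosphate fluorescence.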

[2] = target: T2, PYL11 (Arabidopsis thaliana, UniProt Q9FJ50); conditions: for remaining activity at 50 µM: 50 uM of the test compound
T2 construct: made in house; host or cells: E. coli BL21[DE3]pLysS
T2 sequence (Q9FJ50 1-161): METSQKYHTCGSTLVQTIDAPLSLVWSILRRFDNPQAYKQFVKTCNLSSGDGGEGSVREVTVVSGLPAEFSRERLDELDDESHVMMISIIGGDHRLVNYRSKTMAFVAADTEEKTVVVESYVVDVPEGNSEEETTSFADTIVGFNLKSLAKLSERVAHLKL
T2 sequence (Q9CAJ0 23-511 partner): T1 sequence (Q9CAJ0 23-511 partner)
Procedure, shortened: as §1

[3] = target: T3, PYL5 (Arabidopsis thaliana, UniProt Q9FLB1); conditions: for remaining activity at 25 µM: compound at 25 μM, control without agonist = 100%; for PYL5 agonist potency and selectivity: compounds with cyclopropyl rings at alpha carbon; for remaining activity at 50 µM: 50 uM of the test compound
T3 construct: 6X-His; made in house; host or cells: E. coli BL21[DE3]pLysS
T3 sequence (Q9FLB1 1-203): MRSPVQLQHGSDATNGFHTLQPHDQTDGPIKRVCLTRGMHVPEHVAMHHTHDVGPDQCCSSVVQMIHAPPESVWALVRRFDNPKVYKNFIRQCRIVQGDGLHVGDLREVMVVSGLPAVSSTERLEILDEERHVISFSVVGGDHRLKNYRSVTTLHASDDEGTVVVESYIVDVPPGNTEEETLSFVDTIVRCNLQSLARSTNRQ
T3 sequence (Q9CAJ0 23-511 partner): T1 sequence (Q9CAJ0 23-511 partner)
Procedure, shortened: as §1

[4] = target: T4, PYL6 (Arabidopsis thaliana, UniProt Q8S8E3); conditions: for remaining activity at 50 µM: 50 uM of the test compound
T4 construct: 6X-His; made in house; host or cells: E. coli BL21[DE3]pLysS
T4 sequence (Q8S8E3 1-215): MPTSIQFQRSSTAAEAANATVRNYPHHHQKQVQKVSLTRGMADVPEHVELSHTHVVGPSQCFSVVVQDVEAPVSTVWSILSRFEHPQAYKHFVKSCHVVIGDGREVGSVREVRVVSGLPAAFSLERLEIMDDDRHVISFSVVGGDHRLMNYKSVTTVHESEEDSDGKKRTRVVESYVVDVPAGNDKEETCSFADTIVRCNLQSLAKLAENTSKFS
T4 sequence (Q9CAJ0 23-511 partner): T1 sequence (Q9CAJ0 23-511 partner)
Procedure, shortened: as §1

[5] = target: T5, PYL8 (Arabidopsis thaliana, UniProt Q9FGM1); conditions: for remaining activity at 25 µM: compound at 25 μM, control without agonist = 100%; for remaining activity at 50 µM: 50 uM of the test compound
T5 construct: 6X-His; made in house; host or cells: E. coli BL21[DE3]pLysS
T5 sequence (Q9FGM1 1-188): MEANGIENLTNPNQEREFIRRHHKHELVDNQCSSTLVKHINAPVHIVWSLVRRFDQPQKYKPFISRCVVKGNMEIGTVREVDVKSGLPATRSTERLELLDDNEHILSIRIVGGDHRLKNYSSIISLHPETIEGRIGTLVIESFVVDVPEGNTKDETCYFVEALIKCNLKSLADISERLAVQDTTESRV
T5 sequence (Q9CAJ0 23-511 partner): T1 sequence (Q9CAJ0 23-511 partner)
Procedure, shortened: (§2)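 Fluorogenic readout: 4-methylumbelliferyl-phosphate hydrolysis by 50 nM GST-HAB1 plus 2:1 His-receptor; Tris-OAc pH 7.9, NaCl, 1 mM MnCl2, β-ME. Compounds at 25 μM or 50 uM single dose; IC50 from dose curves for selected compounds.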

[6] = target: T6, PYL9 (Arabidopsis thaliana, UniProt Q84MC7); conditions: for remaining activity at 25 µM: compound at 25 μM, control without agonist = 100%; for remaining activity at 50 µM: 50 uM of the test compound
T6 construct: 6X-His; made in house; host or cells: E. coli BL21[DE3]pLysS
T6 sequence (Q84MC7 1-187): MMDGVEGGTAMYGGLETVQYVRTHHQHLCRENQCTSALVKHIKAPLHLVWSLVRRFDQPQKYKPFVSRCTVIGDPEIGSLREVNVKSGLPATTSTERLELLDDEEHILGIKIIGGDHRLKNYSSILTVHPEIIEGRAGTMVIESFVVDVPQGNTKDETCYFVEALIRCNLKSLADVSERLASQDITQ
T6 sequence (Q9CAJ0 23-511 partner): T1 sequence (Q9CAJ0 23-511 partner)
Procedure, shortened: as §2

[7] = Table VII, read-out: PP2C Dose Curves PYL10 (IC50)
[8] = Table VII, read-out: PP2C Dose Curves PYL11 (IC50)
[9] = Table VII, read-out: PP2C Dose Curves PYL5 (IC50)
[10] = Table VII, read-out: PP2C Dose Curves PYL6 (IC50)
[11] = Table VII, read-out: PP2C Dose Curves PYL8 (IC50)
[12] = Table VII, read-out: PP2C Dose Curves PYL9 (IC50)
[13] = Table XII-B, calculated from dose curves, read-out: PP2C Activity (IC50 in uM) PYL10
[14] = Table XII-B, calculated from dose curves, read-out: PP2C Activity (IC50 in uM) PYL11
[15] = Table XII-B, calculated from dose curves, read-out: PP2C Activity (IC50 in uM) PYL5
[16] = Table XII-B, calculated from dose curves, read-out: PP2C Activity (IC50 in uM) PYL6
[17] = Table XII-B, calculated from dose curves, read-out: PP2C Activity (IC50 in uM) PYL8
[18] = Table XII-B, calculated from dose curves, read-out: PP2C Activity (IC50 in uM) PYL9

IC50 [1, 7] [µM] | IC50 [2, 8] [µM] | IC50 [3, 9] [µM] | remaining activity at 25 µM [3] [%] | IC50 [4, 10] [µM] | IC50 [5, 11] [µM] | remaining activity at 25 µM [5] [%] | IC50 [6, 12] [µM] | remaining activity at 25 µM [6] [%] | SMILES | further results
> 50 | 2.25 | > 50 | 74 | > 50 | 3.23 | 24 | 1.4 | 12 | N#Cc1ccc(CS(=O)(=O)NC(=O)C2(c3ccc(F)cc3)CCC2)cc1 [Compound 32] | –
41.6 | 7.52 | – | 105 | – | 11.5 | 33 | 7.11 | 18 | N#Cc1ccc(CS(=O)(=O)NC(=O)C2(c3cccc(F)c3)CCCC2)cc1 [Compound 26] | –
> 50 | > 50 | – | 95 | – | 22.7 | 41 | 28.2 | 46 | Cc1cccc(C2(C(=O)NS(=O)(=O)Cc3ccc(C#N)cc3)CCCC2)c1 [Compound 43] | –

The remaining lines, values behind:

SMILES | IC50 [1, 7] [µM] | IC50 [2, 8] [µM] | IC50 [3, 9] [µM] | remaining activity at 25 µM [3] [%] | IC50 [4, 10] [µM] | IC50 [5, 11] [µM] | remaining activity at 25 µM [5] [%] | IC50 [6, 12] [µM] | remaining activity at 25 µM [6] [%] | further results
Cc1ccccc1C1(C(=O)NS(=O)(=O)Cc2ccc(C#N)cc2)CC1 [Compound 44] | 79.1 | 13.3 | 2.48 | 18 | 12.2 | 49.5 | 63 | 21.1 | 50 | PYL5 agonist potency and selectivity [3]: potent and relatively selective PYL5 agonists
O=C(NS(=O)(=O)Cc1ccc(F)cc1)C1(c2ccccc2)CCCCC1 [Compound 64] | – | – | – | – | – | – | – | – | – | remaining activity at 50 µM [1]: 89.8%; IC50 [1, 13]: > 50 µM; remaining activity at 50 µM [2]: 97.5%; IC50 [2, 14]: > 50 µM; remaining activity at 50 µM [3]: 103%; IC50 [3, 15]: > 50 µM; remaining activity at 50 µM [4]: 109%; IC50 [4, 16]: > 50 µM; remaining activity at 50 µM [5]: 101%; IC50 [5, 17]: > 50 µM; remaining activity at 50 µM [6]: 91.1%; IC50 [6, 18]: > 50 µM
N#Cc1ccc(CS(=O)(=O)NC(=O)C(c2ccc(F)cc2)c2ccc(F)cc2)cc1 [Compound 72, N-[(4-Cyanophenyl)methanesulfonyl]-2,2-bis(4-fluorophenyl)acetamide] | – | – | – | – | – | – | – | – | – | remaining activity at 50 µM [1]: 98%; IC50 [1, 13]: > 50 µM; remaining activity at 50 µM [2]: 37.4%; IC50 [2, 14]: 25 µM; remaining activity at 50 µM [3]: 102%; IC50 [3, 15]: > 50 µM; remaining activity at 50 µM [4]: 95.1%; IC50 [4, 16]: > 50 µM; remaining activity at 50 µM [5]: 98.5%; IC50 [5, 17]: > 50 µM; remaining activity at 50 µM [6]: 85.8%; IC50 [6, 18]: > 50 µM
N#Cc1ccc(CS(=O)(=O)NC(=O)C2(c3ccccc3F)CCCC2)cc1 [Compound 25] | > 50 | 12.7 | – | 102 | – | 12.6 | 37 | 6.69 | 21 | –
N#Cc1ccc(CS(=O)(=O)NC(=O)C2(c3ccsc3)CCCCC2)cc1Br [Compound 106, N-[(4-Cyano-3-bromophenyl)methanesulfonyl]-1-(thiophen-3-yl)cyclohexane-1-carboxamide] | – | – | – | – | – | – | – | – | – | remaining activity at 50 µM [1]: 22.5%; IC50 [1, 13]: 0.022 µM; remaining activity at 50 µM [2]: 7.8%; IC50 [2, 14]: 0.065 µM; remaining activity at 50 µM [3]: 11.9%; IC50 [3, 15]: 7.26 µM; remaining activity at 50 µM [4]: 17.6%; IC50 [4, 16]: 7.84 µM; remaining activity at 50 µM [5]: 13.6%; IC50 [5, 17]: 0.037 µM; remaining activity at 50 µM [6]: 5.4%; IC50 [6, 18]: 0.014 µM
CC1(C)CCC(C(=O)NS(=O)(=O)Cc2ccc(C#N)cc2)(c2ccc(F)cc2)CC1 [Compound 68, N-[(4-Cyanophenyl)methanesulfonyl]-1-(4-fluorophenyl)-4,4-dimethylcyclohexane-1-carboxamide] | – | – | – | – | – | – | – | – | – | remaining activity at 50 µM [1]: 83.3%; IC50 [1, 13]: > 50 µM; remaining activity at 50 µM [2]: 16.2%; IC50 [2, 14]: 2.22 µM; remaining activity at 50 µM [3]: 103%; IC50 [3, 15]: > 50 µM; remaining activity at 50 µM [4]: 46.6%; remaining activity at 50 µM [5]: 57.5%; IC50 [5, 17]: > 50 µM; remaining activity at 50 µM [6]: 22.6%; IC50 [6, 18]: 17.7 µM
CC(C)(C(=O)NS(=O)(=O)Cc1ccc(C#N)cc1)c1cccc(C#N)c1 [Compound 18] | 31.5 | 14.9 | 1.95 | 12 | 12.6 | 18.6 | 52 | 8.29 | 34 | –
N#Cc1ccc(CS(=O)(=O)NC(=O)C2(c3ccc(Br)cc3)CC2)cc1 [Compound 30] | – | 4.63 | 0.86 | 12 | > 50 | > 50 | 82 | > 50 | 69 | PYL5 agonist potency and selectivity [3]: potent and relatively selective PYL5 agonists
CC(C)(C(=O)NS(=O)(=O)Cc1ccc([N+](=O)[O-])cc1)c1ccccc1 [Compound 3] | – | 1.94 | 29.5 | 47 | 45.5 | 8.58 | 35 | 3 | 18 | –
CC(C)(C(=O)NS(=O)(=O)Cc1ccc(C#N)cc1)c1ccc(F)cc1 [Compound 13] | > 50 | 2.48 | 11.1 | 37 | 18.9 | 4.45 | 32 | 1.62 | 17 | –
CC(C)(C(=O)NS(=O)(=O)Cc1ccc(C#N)cc1)c1ccc(Cl)c(Cl)c1 [Compound 7] | – | 13.9 | 10.7 | 33 | > 50 | 40 | 54 | 18.5 | 38 | –
